In general, IC50 refers to the point on the concentration scale where inhibition reaches its midpoint.

Counter-ions that a name gives are not always drawn.

The subject of the experiment is IL-4 stimulated CD23 upregulation in human Ramos B cells (JAK-1/JAK-3, Stat-6). The experiment can be described thus: Assay for Ramos B-Cell Line Stimulated with IL-4 (CD23 upregulation, FACS). Type of experiment: cell-based. An excerpt:
One means of assaying for such inhibition is detection of the effect of the 2,4-pyrimidinediamine compounds on the upregulation of downstream gene products. In the Ramos/IL4 assay, B-cells are stimulated with the cytokine Interleukin-4 (IL-4) leading to the activation of the JAK/Stat pathway through phosphorylation of the JAK family kinases, JAK1 and JAK3, which in turn phosphorylate and activate the transcription factor Stat-6. […] To study the effect of inhibitors (e.g., the 2,4-substituted pyrimindinediamine compounds described herein) on the JAK1 and JAK3 kinases, human Ramos B cells are stimulated with human IL-4. 20 to 24 hours post stimulation, cells are stained for upregulation of CD23 and analyzed using flow cytometry (FACS).
B-cells stimulated with cytokine Interleukin-4 (IL-4) activate the JAK/Stat pathway through phosphorylation of the JAK family kinases, JAK-1 and JAK-3, which in turn phosphorylate and activate the transcription factor Stat-6. […] To study the effect of inhibitors on the JAK family kinases, human Ramos B cells are stimulated with human IL-4.
Cells were maintained at a density of 3.5×10^5. The day before the experiment, Ramos B-cells were diluted to 3.5×10^5 cells/mL to ensure that they were in a logarithmic growth phase.
Cells were spun down and suspended in RPMI with 5% serum. 5×10^4 cells were used per point in a 96-well tissue culture plate. Cells were pre-incubated with compound or DMSO (Sigma-Aldrich, St. Louis, Mo., Cat No. D2650) vehicle control for 1 hour in a 37° C. incubator. Cells were then stimulated with IL-4 (Peprotech Inc., Rocky Hill, N.J., Cat No. 200-04) for a final concentration of 50 units/mL for 20-24 hours. […] Detection was performed using a BD LSR I System Flow Cytometer, purchased from Becton Dickinson Biosciences of San Jose, Calif.

Setting [1] is: Table III Example 3, sodium salt.

`CCCC(=O)NS(=O)(=O)c1cccc(Nc2ncc(C)c(Nc3cccc(CNS(=O)(=O)C4CC4)c3)n2)c1` [Compound I-223, N2-(3-butyrylaminosulfonyl)phenyl-N4-(3-cyclopropylsulfonylaminomethyl)phenyl-5-methyl-2,4-pyrimidinediamine] gave an IC50 (Table III Example 3) of 3690 nM.

Where the note is “Table III Example 3”, `CCC(=O)NS(=O)(=O)c1cc(Nc2ncc(F)c(Nc3ccc(CN(C(=O)CC)S(=O)(=O)C4CC4)cc3)n2)ccc1C` [Compound I-60, N4-[4-(N-cyclopropylsulfonyl-N-propionyl)aminomethyl]phenyl-5-fluoro-N2-(4-methyl-3-propionylaminosulfonyl)phenyl-2,4-pyrimidinediamine] yielded an IC50 of 7080 nM.

Consider `CCC(=O)NS(=O)(=O)c1cccc(Nc2ncc(C)c(Nc3cccc(CN(C(=O)CC)S(=O)(=O)C4CC4)c3)n2)c1` [Compound I-94, N4-[3-(N-cyclopropylsulfonyl-N-propionyl)aminomethyl]phenyl-5-methyl-N2-(3-propionylaminosulfonyl)phenyl-2,4-pyrimidinediamine sodium salt], for which the IC50 under setting [1] worked out at 2500 nM.

Turning to `CCC(=O)NS(=O)(=O)c1cccc(Nc2ncc(F)c(Nc3ccc(CN(C(=O)CC)S(=O)(=O)C4CC4)cc3)n2)c1` [Compound I-58, N4-[4-(N-cyclopropylsulfonyl-N-propionyl)aminomethyl]phenyl-5-fluoro-N2-(3-propionylaminosulfonyl)phenyl-2,4-pyrimidinediamine], the IC50 (Table III Example 3) stood at 11100 nM.

`Cc1cnc(Nc2cccc(S(=O)(=O)N[C@H](C(=O)O)C(C)C)c2)nc1Nc1cccc(CNS(=O)(=O)C2CC2)c1` [Compound I-138, N2-[3-N-(L-Val)aminosulfonyl]phenyl-N4-(3-cyclopropylsulfonylaminomethyl)phenyl-5-methyl-2,4-pyrimidinediamine] returned an IC50 (Table III Example 3) of 2380 nM.

Turning to `CCCC(=O)NS(=O)(=O)c1ccc(Nc2ncc(C)c(Nc3ccc(CN(C(=O)CCC)S(=O)(=O)C4CC4)cc3)n2)cc1` [Compound I-204, N2-(4-butyrylaminosulfonyl)phenyl-N4-[4-(N-butyryl-N-cyclopropylsulfonyl)aminomethyl]phenyl-5-methyl-2,4-pyrimidinediamine], the concentration for half-maximal inhibition (IC50) (Table III Example 3) was 1040 nM.

As for `Cc1cnc(Nc2cccc(S(=O)(=O)NC(=O)[C@H](Cc3ccccc3)NC(=O)OCc3ccccc3)c2)nc1Nc1cccc(CNS(=O)(=O)C2CC2)c1` [Compound I-135, N2-[3-N-(Cbz-L-Phe)aminosulfonyl]phenyl-N4-(3-cyclopropylsulfonylaminomethyl)phenyl-5-methyl-2,4-pyrimidinediamine sodium salt], under setting [1], the IC50 came to 1000 nM.

Consider `Cc1cnc(Nc2cccc(S(=O)(=O)NC(=O)CNC(=O)OC(C)(C)C)c2)nc1Nc1cccc(CNS(=O)(=O)C2CC2)c1` [Compound I-140, N2-{3-N-[2-(t-butoxycarbonylamino)-1-oxoethyl]aminosulfonyl}phenyl-N4-(3-cyclopropylsulfonylaminomethyl)phenyl-5-methyl-2,4-pyrimidinediamine], for which the IC50 (Table III Example 3) is 3940 nM.

For the compound `CC(=O)NS(=O)(=O)c1cccc(Nc2ncc(C)c(Nc3cccc(CN(C(C)=O)S(=O)(=O)C4CC4)c3)n2)c1` [Compound I-196, N2-(3-acetamidosulfonyl)phenyl-N4-[3-(N-acetyl-N-cyclopropylsulfonyl)aminomethyl]phenyl-5-methyl-2,4-pyrimidinediamine sodium salt], the IC50 under setting [1] came out at 2050 nM.

On to `Cc1cnc(Nc2cccc(S(=O)(=O)NC(=O)CNC(=O)OC(C)(C)C)c2)nc1Nc1cccc(CNS(=O)(=O)C2CC2)c1` [Compound I-141, N2-{3-N-[2-(t-butoxycarbonylamino)-1-oxoethyl]aminosulfonyl}phenyl-N4-(3-cyclopropylsulfonylaminomethyl)phenyl-5-methyl-2,4-pyrimidinediamine sodium salt], for which the IC50 under setting [1] is 4710 nM.

As to `Cc1cnc(Nc2cccc(S(=O)(=O)NC(=O)CNC(=O)OCc3ccccc3)c2)nc1Nc1cccc(CNS(=O)(=O)C2CC2)c1` [Compound I-143, N2-{3-N-[2-(benzoxycarbonylamino)-1-oxoethyl]aminosulfonyl}phenyl-N4-(3-cyclopropylsulfonylaminomethyl)phenyl-5-methyl-2,4-pyrimidinediamine sodium salt], under setting [1], the IC50 stood at 7290 nM.

`Cc1cnc(Nc2cccc(S(=O)(=O)N[C@H](C(=O)O)C(C)C)c2)nc1Nc1cccc(CNS(=O)(=O)C2CC2)c1` [Compound I-146, N2-[3-N-(L-Val)aminosulfonyl]phenyl-N4-(3-cyclopropylsulfonylaminomethyl)phenyl-5-methyl-2,4-pyrimidinediamine hydrogen chloride salt] had a concentration for half-maximal inhibition (IC50) (Table III Example 3) of 12300 nM.

`Cc1cnc(Nc2cccc(S(=O)(=O)NC(=O)[C@@H](NC(=O)OCc3ccccc3)C(C)C)c2)nc1Nc1cccc(CNS(=O)(=O)C2CC2)c1` [Compound I-144, N2-[3-N-(Cbz-L-Val)aminosulfonyl]phenyl-N4-(3-cyclopropylsulfonylaminomethyl)phenyl-5-methyl-2,4-pyrimidinediamine] returned an IC50 (Table III Example 3) of 7720 nM.

With `Cc1cnc(Nc2ccc(S(=O)(=O)NC(=O)C(C)C)cc2)nc1Nc1ccc(CN(C(=O)C(C)C)S(=O)(=O)C2CC2)cc1` [Compound I-201, N4-[4-(N-cyclopropylsulfonyl-N-isobutyryl)aminomethyl]phenyl-N2-(4-isobutyrylaminosulfonyl)phenyl-5-methyl-2,4-pyrimidinediamine sodium salt], the IC50 under setting [1] turned out to be 1210 nM.

Turning to `CCC(=O)NS(=O)(=O)c1ccc(Nc2ncc(C)c(Nc3ccc(CN(C(=O)CC)S(=O)(=O)C4CC4)cc3)n2)cc1` [Compound I-77, N4-[4-(N-cyclopropylsulfonyl-N-propionyl)aminomethyl]phenyl-5-methyl-N2-(4-propionylaminosulfonyl)phenyl-2,4-pyrimidinediamine], the IC50 (Table III Example 3) came out at 1230 nM.

Where the note is “Table III Example 3”, `Cc1cnc(Nc2cccc(S(=O)(=O)NC(=O)[C@@H](N)Cc3ccccc3)c2)nc1Nc1cccc(CNS(=O)(=O)C2CC2)c1` [Compound I-132, N2-[3-N-(L-Phe)aminosulfonyl]phenyl-N4-(3-cyclopropylsulfonylaminomethyl)phenyl-5-methyl-2,4-pyrimidinediamine hydrogen chloride salt] displayed an IC50 of 594 nM.

`CCC(=O)NS(=O)(=O)c1cccc(Nc2ncc(F)c(Nc3ccc(CNS(=O)(=O)C4CC4)cc3)n2)c1` [Compound I-57, N4-(4-cyclopropylsulfonylaminomethyl)phenyl-5-fluoro-N2-(3-propionylaminosulfonyl)phenyl-2,4-pyrimidinediamine] showed an IC50 (Table III Example 3) of 12300 nM.

For `CCC(=O)NS(=O)(=O)c1cccc(Nc2ncc(F)c(Nc3ccc(CNS(=O)(=O)C4CC4)cc3)n2)c1` [Compound I-61, N4-(4-cyclopropylsulfonylaminomethyl)phenyl-5-fluoro-N2-(3-propionylaminosulfonyl)phenyl-2,4-pyrimidinediamine sodium salt], under setting [1], the IC50 was determined as 18900 nM.

As for “N4-[4-(N-cyclopropylsulfonyl-N-propionyl)aminomethyl]phenyl-5-methyl-N2-(4-propionylaminosulfonyl)phenyl-2,4-pyrimidinediamine sodium salt [Compound I-78]”, it took 1080 nM to reach half-maximal inhibition (Table III Example 3) (IC50).

As for `CCCCCC(=O)NS(=O)(=O)c1cccc(Nc2ncc(C)c(Nc3cccc(CN(C(=O)CCCCC)S(=O)(=O)C4CC4)c3)n2)c1` [Compound I-219, N4-[3-(N-cyclopropylsulfonyl-N-hexanoyl)aminomethyl]phenyl-N2-(3-hexanoylaminosulfonyl)phenyl-5-methyl-2,4-pyrimidinediamine sodium salt], under setting [1], the IC50 was 2600 nM.

The compound `CCCC(=O)N(Cc1cccc(Nc2nc(Nc3cccc(S(N)(=O)=O)c3)ncc2C)c1)S(=O)(=O)C1CC1` [Compound I-224, N2-(3-aminosulfonyl)phenyl-N4-[3-(N-butyryl-N-cyclopropylsulfonyl)aminomethyl]phenyl-5-methyl-2,4-pyrimidinediamine] gave an IC50 (Table III Example 3) of 21.8 nM.

In turn, `Cc1cnc(Nc2cccc(S(=O)(=O)NC(=O)C3(NC(=O)OC(C)(C)C)CCCC3)c2)nc1Nc1cccc(CNS(=O)(=O)C2CC2)c1` [Compound I-148, N2-[3-N-(Boc-cycloleucine)aminosulfonyl]phenyl-N4-(3-cyclopropylsulfonylaminomethyl)phenyl-5-methyl-2,4-pyrimidinediamine] registered an IC50 (Table III Example 3) of 16200 nM.

For the compound `CCC(=O)NS(=O)(=O)c1cccc(Nc2ncc(C)c(Nc3cccc(CN(C(=O)CC)S(=O)(=O)C4CC4)c3)n2)c1` [Compound I-93, N4-[3-(N-cyclopropylsulfonyl-N-propionyl)aminomethyl]phenyl-5-methyl-N2-(3-propionylaminosulfonyl)phenyl-2,4-pyrimidinediamine], the IC50 (Table III Example 3) was 2810 nM.

With `Cc1cnc(Nc2ccc(S(=O)(=O)NC(=O)C(C)C)cc2)nc1Nc1ccc(CN(C(=O)C(C)C)S(=O)(=O)C2CC2)cc1` [Compound I-199, N4-[4-(N-cyclopropylsulfonyl-N-isobutyryl)aminomethyl]phenyl-N2-(4-isobutyrylaminosulfonyl)phenyl-5-methyl-2,4-pyrimidinediamine], 1270 nM corresponded to half-maximal inhibition (Table III Example 3) (IC50).

Source of the values: patent US9481654B2, “Compositions and methods for inhibition of the JAK pathway” (Rigel Pharmaceuticals, Inc., priority 2006, dated 2016).
